Like-named read-outs stand apart in the source and are kept apart here.
Columns and labels:
[1] = test system: transglutaminase; experiment: Measurement of transglutaminase activity in lysate of treated keratinocytes (Transglutaminase Colorimetric Microassay Kit); assay type: cell-based, human; conditions: for Transglutaminase activity: HEKn cells, 3 days, relative value, n = 3
[2] = test system: Normal human epidermal keratinocytes NHEK(F); experiment: Verification of ceramide production enhancing effect (TLC of cell lipids); assay type: cell-based; conditions: 3 days, 0.1 μM, relative value, 50 vol % ethanol = 1
Description: Normal human epidermal keratinocytes (trade name: NHEK(F), manufactured by Kurabo Industries, Ltd.) were cultured under the conditions of 37° C. and 5% CO2, in a culture medium (trade name: EpiLife-KG2, manufactured by Kurabo Industries, Ltd.) using a culture plate.
Thereafter, the culture medium was exchanged with EpiLife-KG2 without growth factors such as epidermal growth factor, and a dilution prepared from the extract from Justicia procumbens prepared in the Preparation Example 1-2, the concentration of which was adjusted to 1 w/v % in terms of solids content, […] Alternatively, the culture medium was exchanged with EpiLife-KG2 without growth factors such as epidermal growth factor, and a dilution prepared from the extract from Peristrophe japonica prepared in the Preparation Example 2-2, the concentration of which was adjusted to 1 w/v % in terms of solids content, was added to the culture fluid in an amount of 0.1%. […]
Further, 0.1 N NaOH and a 1% aqueous SDS solution were added to the cells from which lipids had been extracted, and the mixture was heated at 60° C. for 2 hours to thereby solubilize proteins. […] The amount of proteins was quantified by the BCA method. […]
A ceramide amount was measured using recovered cells in a manner similar to Test Example 2-1. […]

[3] = test system: IVL gene; experiment: Evaluation of IVL gene expression (Real-time RT-PCR, HaCaT); assay type: cell-based, human; conditions: 24 hours, 0.01 μM, corrected by RPLPO, relative value, DMSO = 1
Description: Human epidermal keratinocyte line HaCaT was cultured in a culture medium in which 10% fetal calf serum inactivated, and 1% penicillin-streptomycin (manufactured by Gibco Laboratories) were added to DMEM (manufactured by Gibco Laboratories), under conditions of 37° C. and 5% CO2.
In a 6-well plate, HaCaT cells were seeded in an amount of 5×10^4 pieces/well, and cultured. On the following day, exchange was carried out for a culture medium containing the exemplified compound (18) at a final concentration shown in Table 10, and culture was further carried out for 24 hours. In place of the exemplified compound (18), as a control, exchange was carried out for a culture medium containing at a final concentration of 0.1% v/v DMSO being a solvent, and culture was further carried out for 24 hours, and thus the resultant cultured product was used. After 24 hours from addition of the exemplified compound (18), the cells were washed twice using PBS(−), and total RNA was extracted using RNeasy (registered trademark) Mini Kit (manufactured by QIAGEN). A concentration of total RNA was measured, and a fixed amount of total RNA was used as a template, and a reverse transcription reaction was carried out using High capacity RNA-to-cDNA Kit (trade name, manufactured by Applied Biosystems, Inc.).
IVL gene expression was quantitatively determined from the resultant cDNA by Real-time RT-PCR. […]

[4] = evaluated conc. 1 μM, control DMSO = 1
[5] = evaluated conc. 0.01 μM, control DMSO = 1
[6] = evaluated conc. 0.1 μM, control DMSO = 1
[7] = fractions from Justicia procumbens extract, result in words

Row | Compound | Transglutaminase activity [1, 4] | Transglutaminase activity [1, 5] | Transglutaminase activity [1, 6] | also measured
1 | COc1cc([C@@H]2c3cc4c(c(OC)c3C[C@H]3COC(=O)[C@@H]32)OCO4)cc(OC)c1OC [(1), reference compound] | 0.24 ± 0.21 |  |  | 
2 | COc1cc([C@@H]2c3cc4c(cc3C[C@H]3COC(=O)[C@@H]32)OCO4)cc(OC)c1OC [(2), reference compound] | 0.20 ± 0.18 |  |  | 
3 | COc1c2c(c(-c3ccc4c(c3)OCO4)c3cc4c(cc13)OCO4)C(=O)OC2 [(3), reference compound] | 0.70 ± 0.24 | 0.75 ± 0.49 | 0.97 ± 0.43 | 
4 | COc1cc2c(OC)c3c(c(-c4cc5c(cc4O)OCO5)c2cc1OC)C(=O)OC3 [(4), reference compound] | 0.22 ± 0.08 | 0.60 ± 0.28 | 0.39 ± 0.10 | 
5 | O=C1OCc2cc3ccccc3c(-c3ccccc3)c21 [Exemplified compound (11), 9-phenylnaphtho[2,3-c]furan-1(3H)-one] | 1.48 ± 0.22 | 1.10 ± 0.22 | 1.29 ± 0.40 | 
6 | COc1cc2cc3c(c(-c4ccc5c(c4)OCO5)c2cc1OC)C(=O)OC3 [Exemplified compound (12), 6,7-dimethoxy-9-(1,3-benzodioxol-5-yl)naphtho[2,3-c]furan-1(3H)-one] |  | 1.20 ± 0.16 | 2.80 ± 1.73 | Transglutaminase activity of isolated HPLC fraction [1, 7]: confirmed to exist; Ceramide amount (Average value in n = 2) [2]: 1.30
7 | COc1cc2c(O)c3c(c(-c4ccc5c(c4)OCO5)c2cc1OC)C(=O)OC3 [Exemplified compound (13), 4-hydroxy-6,7-dimethoxy-9-(1,3-benzodioxol-5-yl)naphtho[2,3-c]furan-1(3H)-one] |  | 1.95 ± 0.53 | 1.75 ± 0.61 | 
8 | COc1cc2c(OC)c3c(c(-c4ccc5c(c4)OCO5)c2cc1OC)C(=O)OC3 [Exemplified compound (14), 4,6,7-trimethoxy-9-(1,3-benzodioxol-5-yl)naphtho[2,3-c]furan-1(3H)-one] | 2.19 ± 0.98 | 1.22 ± 0.51 | 2.42 ± 0.55 | Transglutaminase activity of isolated HPLC fraction [1, 7]: confirmed to exist
9 | CCOc1c2c(c(-c3ccc4c(c3)OCO4)c3cc(OC)c(OC)cc13)C(=O)OC2 [Exemplified compound (15), 4-ethoxy-6,7-dimethoxy-9-(1,3-benzodioxol-5-yl)naphtho[2,3-c]furan-1(3H)-one] | 1.66 ± 0.33 | 1.25 ± 0.22 | 1.33 ± 0.39 | 
10 | COc1cc2c(OC(C)=O)c3c(c(-c4ccc5c(c4)OCO5)c2cc1OC)C(=O)OC3 [Exemplified compound (16), 4-acetoxy-6,7-dimethoxy-9-(1,3-benzodioxol-5-yl)naphtho[2,3-c]furan-1(3H)-one] | 2.10 ± 0.86 |  | 1.46 ± 0.54 | 
11 | O=C1OCc2cc3ccc4c(c3cc21)OCO4 [Exemplified compound (19), furo[3′,4′,6,7]naphtho[1,2-d]-1,3-dioxole-9(7H)-one] | 2.37 ± 0.26 |  | 1.98 ± 0.83 | 
12 | [Ca+2].[Cl-].[Cl-] [Positive control (Ca^2+), CaCl2, reference compound] |  |  |  | Transglutaminase activity ([1]; CaCl2 1.5 mM positive control, control = 1): 1.51 ± 0.20
13 | Tuberculatin-5″-acetate [Exemplified compound (18)] | 5.44 ± 0.19 |  | 2.78 ± 0.19 | Transglutaminase activity of isolated HPLC fraction [1]: confirmed to exist; IVL gene amount (Average value in n = 2) [3]: 1.32
